The assay has as its target G. pallida SER-7 (Globodera pallida, UniProt A0A183BS20, DEL280-286/G462A/H333Q/S454N/S6T/Y334H). As to the kind of experiment: Cut head pharyngeal pumping assay, ser-7 (tm1325) expressing Gpa-ser-7.

Each structure is given as a SMILES string.

Turning to `NCCc1c[nH]c2ccc(O)cc12` [serotonin, 5-hydroxytryptamine], the half-maximal effective concentration (EC50) is 3.9 µM.

The EC50 is the concentration that produces a half-maximal response. A lower EC50 goes with higher potency in that assay.

The values above are taken from patent US20210360924A1, “PLANT OR SEED COATING” (University of Southampton, priority 2017, published 2021).
